Key:
[1] = system: PAF-induced platelet aggregation (washed PRP); assay: Activity to inhibit PAF in platelet aggregation (washed PRP); format: cell-based, rabbit; details: Oryctolagus cuniculus, test compound 3×10^-5 M, PAF 3×10^-7 M, 37° C., read-out: Inhibition rate
Method: Using an injection syringe containing a 3.15% solution of citric acid (in a ratio of 1 part per 9 parts of blood) as an anticoagulant, the blood was directly collected from a male rabbit. Then, at room temperature, the blood was centrifuged at 1,000 r.p.m. for 10 minutes to harvest a platelet rich plasma (PRP). This PRP was further centrifuged at 1,400 r.p.m. for 15 minutes to give a platelet pellet. The pellet was suspended in Ca^++ -free Tyrode solution (containing 0.25% of gelatin) to give a washed PRP. This washed PRP (250 μl) was stirred at 37° C. for 2 minutes, then 25 μl of a 0.2 to 0.5 mM Ca^++ solution was added, and the mixture was further stirred for 30 seconds. Then, the test compound was added to the above platelet preparation to a level of 3×10^-5 M. After stirring the mixture for 2 minutes, 3×10^-7 M of PAF was added. The degree of platelet aggregation was determined with a platelet aggregometer (Rika Denki). The activity of the test compound was estimated from the inhibition rate as compared with the maximum optical transmission (maximum aggregation) of control PRP by PAF.

[2] = system: PAF-induced respiratory (airway) stenosis; assay: PAF-inhibiting activity in respiratory stenosis; format: in vivo, guinea pig (Hartley); details: 2 minutes before PAF 0.3 μg/kg i.v.
Method: Male and female Hartley strain guinea pigs weighing about 400 g were used. Under urethane anesthesia (1.5 g/kg, i.p.), each animal was immobilized in supine position and one shank of a tracheal cannula (of 4-shank type) was inserted into the airway, with two of the remaining three shanks being connected to a Harvard Apparatus rodent respirator and the remaining one shank to a bronchospasm transducer (Ugo-basile Model 7020). At an air volume of 5 to 7 ml per cycle, an air supply frequency of 70 times/min. and a lung loading pressure of 10 cm H2 O, the volume of overflowing air was recorded through the transducer on a rectigraph (Rectigraph-8S, Sanei Sokki K.K.). After gallamine triethodide (1 mg/kg, i.v.) treatment, […] of histamine 2HCl was intravenously administered to examine the response of the animal. When 0.3 μg/kg of PAF was intravenously administered to control group intravenously pretreated with physiological saline, a miximum airway stenosis was noted after 30 minutes and the amount of stenosis taking a complete stenosis as 100% was 72.8±4.3 (mean±S.D., for 6 cases). The compound of Production Example 2, when intravenously administered 2 minutes before at the dose levels of 0.3 and 1 mg/kg, suppressed the above response by PAF by 49% and 82%, respectively.

[3] = system: circulatory shock due to PAF; assay: Inhibitory activity against circulatory shock due to PAF in anesthetized dogs; format: in vivo, mongrel dogs; details: PAF 1.0 μg/kg i.v. after pretreatment 10 mg/kg i.v.
Method: Male and female mongrel dogs weighing 9 to 13 kg were used. Under pentobarital sodium ([…], i.v.) anesthesia and supportive respiration, a thoracotomy was performed at the left fourth interspace. The origin of the left coronary circumflex and the aortic arch were released, an electromagnetic probe was attached to each, and the coronary blood flow (CoF) and cardiac output (CO) were measured. Moreover, a polyethylene cannula was inserted from the apex of the heart into the left ventricle and the left ventricular pressure (LVP) was measured by means of a pressure transducer. In addition, its first-order differential dp/dt was determined by way of a differential circuit. The mean blood pressure (MBP) was continuously recorded on an ink-writing polygraph through a pressure transducer via a cannula inserted into the right femoral artery and the heart rate (HR) was similarly recorded via a tachometer driven by mean blood pressure pulse waves. PAF and the compound of Production Example 2 were respectively dissolved in physiological saline and administered via a cannula into the left femoral vein. After 1.0 μg/kg of PAF was intravenously administered and the respective parameters recovered to normal, the compound of Production Example 2 (10 mg/kg) was intravenously administered. After 10 minutes, 1.0 μg/kg of PAF was intravenously administered to estimate the anti-PAF activity of the compound of Production Example 2. All values are in percents relative to the values prior to PAF administration.

[4] = system: endotoxin-induced blood pressure fall; assay: Anti-endotoxin shock activity in rats; format: in vivo, rat (Sprague-Dawley); details: 10 mg/kg i.v., 10 minutes before endotoxin 15 mg/kg i.v., mean ± SD
Method: Male Sprague-Dawley rats weighing 500 to 600 g were used under pentobarbital sodium (50 mg/kg, i.v.) anesthesia. A cannula was inserted into the femoral artery and secured in position for measurement of blood pressure and another cannula into the femoral vein for administration of a solution of the drug. The blood pressure was measured via a pressure transducer and recorded on a polygraph. For a control group, a suspension of endotoxin (Lipopolysaccharide W. E. coli 0111: B4, Wako Pure Chemical) in physiological saline was administered into the femoral vein and the maximum hypotensive response occurring 3 to 5 minutes after administration was recorded. On the other hand, for the administration of 3-(N-n-octadecylcarbamoyloxy)-2-methoxypropyl 2-thiazolioethyl phosphate [hereinafter, compound (IA)], the compound (IA) was dissolved in physiological saline and administered into the femoral vein in a dose of 10 mg/kg. Ten (10) minutes after the administration of (IA), endotoxin was similarly administered and the maximum hypotensive response was recorded. The anti-endotoxin shock activity of the test compound was estimated from the difference in blood pressure response between the (IA) treatment group and the non-(IA)treatment group.

endotoxin-induced death = assay: Preventive effect against endotoxin-induced death in mice; format: in vivo, mouse (ICR-Jcl); details: 10 mg/kg i.v. + endotoxin 15 mg/kg i.v.
Method: Male mice of ICR-Jcl strain, aged 5 weeks and with a body weight of about 30 g, were used in groups of 7 individuals. For the control group, 15 mg/kg of endotoxin was suspended in 0.1 ml/10 g of physiological saline and injected into the tail vein. For the compound (IA) treatment group, 10 mg/kg of the compound (IA) and 15 mg/kg of endotoxin were suspended in 0.1 ml/10 g of physiological saline and similarly injected into the tail vein. The mice were examined for death up to 20 hours after the treatment.

CCCCCCCCCCCCCCCCNC(=O)OCC(COP(=O)([O-])OCC[n+]1ccsc1)OC (centres unmarked) [Production Example 11, 2-Methoxy-3-hexadecylcarbamoyloxypropyl 2-thiazolioethyl phosphate]
inhibition at 30 µM [1]: 100%

CCCCCCCCCCCCCCCCCCNC(=O)OCC(COP(=O)([O-])OCC[n+]1ccsc1)OCc1ccccc1 (centres unmarked) [Production Example 6, 3-(N-Octadecylcarbamoyloxy)-2-benzyloxypropyl 2-thiazolioethyl phosphate]
inhibition at 30 µM [1]: 79%

CCCCCCCCCCCCCCCCCCCCCCNC(=O)OCC(COP(=O)([O-])OCC[n+]1ccsc1)OC (centres unmarked) [Production Example 8, 3-(N-Docosylcarbamoyloxy)-2-methoxypropyl 2-thiazolioethyl phosphate]
inhibition at 30 µM [1]: 24%

CCCCCCCCCCCCCCCCCCNC(=O)OCC(COP(=O)([O-])OCC[n+]1ccccc1)OCc1ccccc1 (centres unmarked) [Production Example 7, 3-(N-Octadecylcarbamoyloxy)-2-benzyloxypropyl 2-pyridinioethyl phosphate]
inhibition at 30 µM [1]: 19%

CCCCCCCCCCNC(=O)OCC(COP(=O)([O-])OCC[n+]1ccsc1)OC (centres unmarked) [Production Example 3, 3-(N-Decylcarbamoyloxy)-2-methoxypropyl 2-thiazolioethyl phosphate]
inhibition at 30 µM [1]: 12%

CCCCCCCCCCCCCCCNC(=O)OCC(COP(=O)([O-])OCC[n+]1ccsc1)OC (centres unmarked) [Production Example 10, 2-Methoxy-3-pentadecylcarbamoyloxypropyl 2-thiazolioethyl phosphate]
inhibition at 30 µM [1]: 100%

CCCCCCCCCCCCCCCCCCNC(=O)OCC(COP(=O)([O-])OCC[n+]1ccsc1)OC (centres unmarked) [Production Example 2, 3-(N-Octadecylcarbamoyloxy)-2-methoxypropyl 2-thiazolioethyl phosphate]
inhibition at 30 µM [1]: 100% | suppression of the airway stenosis response by PAF ([2]; 0.3 mg/kg i.v.): 49% | suppression of the airway stenosis response by PAF ([2]; 1 mg/kg i.v.): 82% | CO (percent of value prior to PAF) ([3]; 0.5 min): 107 ± 4% | CoF (percent of value prior to PAF) ([3]; 0.5 min): 109 ± 4% | DBP (percent of value prior to PAF) ([3]; 0.5 min): 78 ± 5% | HR (percent of value prior to PAF) ([3]; 0.5 min): 109 ± 2% | LVP (percent of value prior to PAF) ([3]; 0.5 min): 92 ± 3% | MBP (percent of value prior to PAF) ([3]; 0.5 min): 87 ± 7% | SBP (percent of value prior to PAF) ([3]; 0.5 min): 90 ± 3% | max dp/dt (row head is a drawing; percent of value prior to PAF) ([3]; 0.5 min): 94 ± 7% | CO (percent of value prior to PAF) ([3]; 1 min): 99 ± 2% | CoF (percent of value prior to PAF) ([3]; 1 min): 103 ± 3% | DBP (percent of value prior to PAF) ([3]; 1 min): 99 ± 1% | HR (percent of value prior to PAF) ([3]; 1 min): 105 ± 1% | LVP (percent of value prior to PAF) ([3]; 1 min): 97 ± 3% | MBP (percent of value prior to PAF) ([3]; 1 min): 99 ± 1% | SBP (percent of value prior to PAF) ([3]; 1 min): 99 ± 1% | max dp/dt (row head is a drawing; percent of value prior to PAF) ([3]; 1 min): 98 ± 2% | CO (percent of value prior to PAF) ([3]; 5 min): 103 ± 5% | CoF (percent of value prior to PAF) ([3]; 5 min): 97 ± 3% | DBP (percent of value prior to PAF) ([3]; 5 min): 101 ± 2% | HR (percent of value prior to PAF) ([3]; 5 min): 103 ± 3% | LVP (percent of value prior to PAF) ([3]; 5 min): 100 ± 1% | MBP (percent of value prior to PAF) ([3]; 5 min): 101 ± 2% | SBP (percent of value prior to PAF) ([3]; 5 min): 102 ± 3% | max dp/dt (row head is a drawing; percent of value prior to PAF) ([3]; 5 min): 102 ± 3% | Max. hypotensive response after drug administration (-ΔmmHg) ([4]; listed as Compound (IA)): 15 ± 3 mmHg | Max. hypotensive response after drug administration (-ΔmmHg) ([4]; listed as compound (IA)): 15 mmHg | Mortality within 20 hrs. (endotoxin-induced death): 14% | No. of deaths within 20 hrs. after drug administration, Deaths/survivals (endotoxin-induced death): 1/7

CCCCCCCCCCCCCCCCCNC(=O)OCC(COP(=O)([O-])OCC[n+]1ccsc1)OC (centres unmarked) [Production Example 12, 2-methoxy-3-heptadecylcarbamoyloxypropyl 2-thiazolioethyl phosphate]
inhibition at 30 µM [1]: 100%

CCCCCCCCCCCCCCCCCCNC(=O)OCC(COP(=O)([O-])OCC[n+]1ccccc1)OC (centres unmarked) [Production Example 1, 3-(N-Octadecylcarbamoyloxy)-2-methoxypropyl 2-pyridinioethyl phosphate]
inhibition at 30 µM [1]: 95%

CCCCCCCCCCCCCCCCCCNC(=O)OCC(COP(=O)([O-])OCC[n+]1ccc2ccccc2c1)OC (centres unmarked) [Production Example 5, 3-(N-Octadecylcarbamoyloxy)-2-methoxypropyl 2-isoquinolinioethyl phosphate]
inhibition at 30 µM [1]: 37%

CCCCCCCCCCCCCCCCCCNC(=O)OCC(COP(=O)([O-])OCC[n+]1csc(CCO)c1C)OC (centres unmarked) [Production Example 4, 3-(N-octadecylcarbamoyloxy)-2-methoxypropyl 2-(4-methyl-5-hydroxyethyl)thiazolioethyl phosphate]
inhibition at 30 µM [1]: 33%
